In US12590066B2, “Fused-heterocyclyl-carbonohydrazonoyl dicyanide compounds and use thereof” (KOREA INSTITUTE OF SCIENCE AND TECHNOLOGY, priority 2020, dated 2026):

Key:
Tau-BiFC cells = experiment: Cell viability (stained nuclei count) in Tau-BiFC cells; format: cell-based; conditions: 10 μM compound, 48 hours; Forskolin-only group = 100% cell viability
Procedure: In order to select novel tau protein aggregation-inhibiting substances, tau-BiFC cell model, in which formation of tau oligomers in living cells is easily observed, was used. Tau-BiFC cells were aliquoted into a 384-well plate. On the next day, the cells were treated with each of the compounds prepared according to Examples 1 to 57 at concentrations of 1 μM, 3 μM, and 10 μM, together with Forskolin (at a treatment concentration of 30 μM), which is a compound inducing tau protein aggregation by activating tau phosphorylase PKA. After 48 hours, nuclei in the cells were stained using Hoechst (at a treatment concentration of 2 μg/mL), and BiFC fluorescence intensity was automatically measured using Operetta (PerkinElmer) to count stained nuclei in each well out of the entire well plate. The group treated only with Forskolin, which induces tau protein aggregation, was set to a reference point of a 100% tau protein-aggregated state, and the effects of the compounds were confirmed using the equation “BiFC fluorescence intensity due to compound synthesized according to embodiment of present invention/(fluorescence intensity of control group treated only with Forskolin inducing tau protein aggregation−fluorescence intensity of untreated control group)×100”. Furthermore, the degree of cytotoxicity induced by the newly synthesized compound was also measured based on the 100% cell viability of the group treated only with Forskolin as a reference, and the cytotoxicity value of each compound was calculated using the equation “(number of stained nuclei in group treated with compound/number of stained nuclei in group treated with Forskolin)×100”. Based on the treatment results, substances inhibiting intracellular tau protein aggregation were selected from a series of candidate groups showing a tau protein aggregation inhibition rate of 70% or more and cell viability of 100% at a compound treatment concentration of 10 μM or more. […]

[1] = Liver microsome stability; format: in vitro ADME; conditions: 1 μM compound, 37° C., 30 minutes, NADPH; for Dog (%) amount of substrate remaining after the reaction: dog liver microsomes 0.25 mg/mL; for Human (%) amount of substrate remaining after the reaction: human liver microsomes 0.25 mg/mL; for Mouse (%) amount of substrate remaining after the reaction: mouse liver microsomes 0.25 mg/mL; for Rat (%) amount of substrate remaining after the reaction: rat liver microsomes 0.25 mg/mL
Procedure: The stability of liver microsomes due to the compounds prepared according to Examples 1 to 57 was confirmed. Specifically, four types of liver microsomes (human, dog, rat, and mouse, each 0.25 mg/mL), a 0.1 M phosphate buffer solution (pH 7.4), and each of the compounds at a concentration of 1 μM were mixed and pre-cultured at 37° C. for 5 minutes and further cultured at 37° C. for 30 minutes together with an NADPH generation system solution added thereto. Thereafter, the reaction was terminated by adding an acetonitrile solution containing an internal standard material (chloropropamide) and centrifuged for 5 minutes (14,000 rpm, 4° C.), and then a supernatant was injected into an LC-MS/MS system for analysis of substrate drugs to thereby evaluate metabolic stability due to 8 types of compounds.
The amount of the substrate remaining after the reaction was analyzed using the Shimadzu Nexera XR system and TSQ Vantage (Thermo). In an HPLC column, Kinetex XB-C18 (2.1 mm×100 mm, particle size of 2.6 μm; Phenomenex, USA) was used, and mobile phases were (A) distilled water containing 0.1% formic acid and (B) acetonitrile containing 0.1% formic acid. Analyst software (version 1.6.3) and Xcalibur (version 1.6.1) were used for data analysis.

| Structure (SMILES) | Cell viability (% @10 μM) (Tau-BiFC cells) [%] | Dog (%) amount of substrate remaining after the reaction [1] [%] | Human (%) amount of substrate remaining after the reaction [1] [%] | Mouse (%) amount of substrate remaining after the reaction [1] [%] | Rat (%) amount of substrate remaining after the reaction [1] [%] |
| --- | --- | --- | --- | --- | --- |
| Cn1c(=O)n(C)c2c(Cl)cc(NN=C(C#N)C#N)cc21 [Compound 11, (7-chloro-1,3-dimethyl-2-oxo-2,3-dihydro-1H-benzo[d]imidazol-5-yl)carbonohydrazonoyl dicyanide] | 142.3 | 63.1 | 96.1 | 63.9 | 82.8 |
| CC(C)n1ccc2ccc(NN=C(C#N)C#N)cc2c1=O [Compound 3, (2-isopropyl-1-oxo-1,2-dihydroisoquinolin-7-yl)carbonohydrazonoyl dicyanide] | 112 | 6.4 | 57.4 | 10.1 | 44.4 |
| N#CC(C#N)=NNc1ccc2[nH]c(=O)oc2c1 [Compound 15, (2-oxo-2,3-dihydrobenzo[d]oxazol-6-yl)carbonohydrazonoyl dicyanide] | 127.7 | 97.1 | 74.2 | >100 | 92.5 |
| CC(C)n1c(=O)n(C2CC2)c2ncc(NN=C(C#N)C#N)cc21 [Compound 53, (3-cyclopropyl-1-isopropyl-2-oxo-2,3-dihydro-1H-imidazo[4,5-b]pyridin-6-yl)carbonohydrazonoyl dicyanide] | 125 |  | 84.6 | 83.5 | 82.1 |
| CC(C)n1c(=O)n(C(C)C)c2cc(NN=C(C#N)C#N)ccc21 [Compound 23, (1,3-diisopropyl-2-oxo-2,3-dihydro-1H-benzo[d]imidazol-5-yl)carbonohydrazonoyl dicyanide] | 117 | 86.1 | 83.1 | 72.4 | 77.7 |
| Cn1c(=O)[nH]c2cc(NN=C(C#N)C#N)ccc21 [Compound 17, (1-methyl-2-oxo-2,3-dihydro-1H-benzo[d]imidazol-5-yl)carbonohydrazonoyl dicyanide] | 94.38 | >100 | >100 | 95.7 | >100 |
| CC(C)n1c(=O)n(C2CC2)c2ccc(NN=C(C#N)C#N)cc21 [Compound 42, (1-cyclopropyl-3-isopropyl-2-oxo-2,3-dihydro-1H-benzo[d]imidazol-5-yl)carbonohydrazonoyl dicyanide] | 124 |  | 81.7 | 63.4 | 78.7 |
| N#CC(C#N)=NNc1cccc2c(=O)[nH]ccc12 [Compound 4, (1-oxo-1,2-dihydroisoquinolin-5-yl)carbonohydrazonoyl dicyanide] | 99.3 | >100 | >100 | >100 | 94.5 |
| CC(C)n1c(=O)oc2ccc(NN=C(C#N)C#N)cc21 [Compound 29, (3-isopropyl-2-oxo-2,3-dihydrobenzo[d]oxazol-5-yl)carbonohydrazonoyl dicyanide] | 133 |  | >100 | 88.9 | 96.4 |
| N#CC(C#N)=NNc1ccc2c(c1)oc(=O)n2C(F)F [Compound 21, (3-(difluoromethyl)-2-oxo-2,3-dihydrobenzo[d]oxazol-6-yl)carbonohydrazonoyl dicyanide] | 135 | 72.1 | 73.9 | 71.8 | 79.8 |
| Cn1c(=O)sc2cc(NN=C(C#N)C#N)ccc21 [Compound 14, (3-methyl-2-oxo-2,3-dihydrobenzo[d]thiazol-6-yl)carbonohydrazonoyl dicyanide] | 129.1 | 73.3 | 98.3 | 59.6 | 87.1 |
| CC(C)n1c(=O)n(C)c2ccc(NN=C(C#N)C#N)cc21 [Compound 36, (3-isopropyl-1-methyl-2-oxo-2,3-dihydro-1H-benzo[d]imidazol-5-yl)carbonohydrazonoyl dicyanide] | 104 |  | >100 | 89.4 | 86.4 |
| Cn1c(=O)n(C(F)F)c2cc(NN=C(C#N)C#N)ccc21 [Compound 37, (3-(difluoromethyl)-1-methyl-2-oxo-2,3-dihydro-1H-benzo[d]imidazol-5-yl)carbonohydrazonoyl dicyanide] | 121 |  | 84.9 | 75.7 | 58.5 |
| Cc1cc2c(NN=C(C#N)C#N)cccc2c(=O)n1C [Compound 7, (2,3-dimethyl-1-oxo-1,2-dihydroisoquinolin-5-yl)carbonohydrazonoyl dicyanide] | 101.9 | 95.7 | 96 | 93.3 | 89.7 |
| CCn1c(=O)n(C(C)C)c2ncc(NN=C(C#N)C#N)cc21 [Compound 55, (1-ethyl-3-isopropyl-2-oxo-2,3-dihydro-1H-imidazo[4,5-b]pyridin-6-yl)carbonohydrazonoyl dicyanide] | 124 |  | 85.5 | 87.7 | 91.8 |
| Cn1c(=O)n(C)c2cc(NN=C(C#N)C#N)ccc21 [Compound 22, (1,3-dimethyl-2-oxo-2,3-dihydro-1H-benzo[d]imidazol-5-yl)carbonohydrazonoyl dicyanide] | 120.7 | 92.2 | 80.6 | 63.1 | 91.6 |
| CCn1c(=O)n(C)c2cc(NN=C(C#N)C#N)ccc21 [Compound 38, (1-ethyl-3-methyl-2-oxo-2,3-dihydro-1H-benzo[d]imidazol-5-yl)carbonohydrazonoyl dicyanide] | 106 |  | 95 | 81.6 | 91.8 |
| CC(C)n1c(=O)n(C(F)F)c2cc(NN=C(C#N)C#N)ccc21 [Compound 43, (3-(difluoromethyl)-1-isopropyl-2-oxo-2,3-dihydro-1H-benzo[d]imidazol-5-yl)carbonohydrazonoyl dicyanide] | 96 |  | 81.5 | 58.6 | 86.2 |
